Reference: paper PMC3569060 (Molecular cancer therapeutics, 2012)

Tests used:
[1] = molecular target: T1, hRR (hRR1 + hRR2) (Homo sapiens, UniProt P23921); format: biochemical
T1 sequence (P23921 1-792): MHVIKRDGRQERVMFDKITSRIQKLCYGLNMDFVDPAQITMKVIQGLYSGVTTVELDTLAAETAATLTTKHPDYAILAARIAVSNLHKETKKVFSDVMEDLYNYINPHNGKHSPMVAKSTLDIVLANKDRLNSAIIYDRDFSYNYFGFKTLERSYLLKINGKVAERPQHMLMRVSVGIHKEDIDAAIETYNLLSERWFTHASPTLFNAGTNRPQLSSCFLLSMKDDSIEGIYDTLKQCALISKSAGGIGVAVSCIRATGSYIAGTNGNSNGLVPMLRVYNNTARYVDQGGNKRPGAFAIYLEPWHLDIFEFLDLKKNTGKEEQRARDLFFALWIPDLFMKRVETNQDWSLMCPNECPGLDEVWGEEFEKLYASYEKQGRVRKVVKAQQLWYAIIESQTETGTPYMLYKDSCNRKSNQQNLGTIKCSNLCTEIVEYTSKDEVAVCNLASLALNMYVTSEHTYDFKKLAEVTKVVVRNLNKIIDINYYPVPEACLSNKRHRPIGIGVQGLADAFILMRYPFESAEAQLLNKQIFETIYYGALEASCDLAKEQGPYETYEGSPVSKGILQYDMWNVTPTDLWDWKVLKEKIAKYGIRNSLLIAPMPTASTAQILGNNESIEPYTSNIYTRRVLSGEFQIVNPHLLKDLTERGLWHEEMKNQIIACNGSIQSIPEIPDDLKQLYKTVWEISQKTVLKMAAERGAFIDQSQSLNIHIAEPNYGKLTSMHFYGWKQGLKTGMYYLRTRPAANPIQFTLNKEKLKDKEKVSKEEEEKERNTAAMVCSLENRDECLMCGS
T1 sequence (P31350 1-389 partner): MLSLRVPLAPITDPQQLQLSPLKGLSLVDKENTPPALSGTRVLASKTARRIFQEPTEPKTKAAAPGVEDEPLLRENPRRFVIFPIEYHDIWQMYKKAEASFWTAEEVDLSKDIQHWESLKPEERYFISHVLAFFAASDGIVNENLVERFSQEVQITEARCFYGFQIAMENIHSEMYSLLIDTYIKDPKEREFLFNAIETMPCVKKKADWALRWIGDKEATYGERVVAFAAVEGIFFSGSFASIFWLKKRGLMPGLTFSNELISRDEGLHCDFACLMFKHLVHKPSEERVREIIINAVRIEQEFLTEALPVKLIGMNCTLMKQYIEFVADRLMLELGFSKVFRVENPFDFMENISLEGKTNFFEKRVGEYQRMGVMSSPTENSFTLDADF

[2] = molecular target: T2, ScRR1 (Saccharomyces cerevisiae, UniProt P21524); test: X-ray crystal structure, […] Å, crystal soaking; format: binding; conditions: allosteric S-site; Mg2+ bound at alpha- and gamma-phosphates
T2 sequence (P21524 1-888): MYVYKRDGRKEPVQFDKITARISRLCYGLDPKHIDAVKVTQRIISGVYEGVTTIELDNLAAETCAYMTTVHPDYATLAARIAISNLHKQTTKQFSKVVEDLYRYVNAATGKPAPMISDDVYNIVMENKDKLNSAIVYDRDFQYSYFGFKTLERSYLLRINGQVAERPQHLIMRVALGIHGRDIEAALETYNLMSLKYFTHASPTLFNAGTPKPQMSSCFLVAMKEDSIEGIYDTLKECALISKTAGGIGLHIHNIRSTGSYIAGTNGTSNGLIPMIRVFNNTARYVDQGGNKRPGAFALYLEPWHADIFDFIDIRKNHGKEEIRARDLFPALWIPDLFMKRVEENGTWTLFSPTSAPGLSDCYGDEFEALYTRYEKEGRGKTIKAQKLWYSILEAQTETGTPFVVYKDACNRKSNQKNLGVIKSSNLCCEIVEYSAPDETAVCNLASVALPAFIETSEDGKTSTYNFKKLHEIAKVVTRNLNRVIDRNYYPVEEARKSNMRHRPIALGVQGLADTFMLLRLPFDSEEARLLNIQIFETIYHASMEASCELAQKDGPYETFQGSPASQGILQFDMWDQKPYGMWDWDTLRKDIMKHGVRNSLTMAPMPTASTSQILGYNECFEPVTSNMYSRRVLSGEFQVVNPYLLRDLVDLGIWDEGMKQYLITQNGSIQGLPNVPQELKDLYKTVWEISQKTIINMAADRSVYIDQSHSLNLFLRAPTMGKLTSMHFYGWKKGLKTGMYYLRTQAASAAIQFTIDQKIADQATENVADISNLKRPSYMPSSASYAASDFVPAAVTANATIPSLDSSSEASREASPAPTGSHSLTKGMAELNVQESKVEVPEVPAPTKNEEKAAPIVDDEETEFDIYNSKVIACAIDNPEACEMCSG

IC50 [1]: 170 ± 5 µM
SMILES: O=[N+]([O-])c1ccc2c(ccn2[C@H]2C[C@H](O)[C@@H](COP(=O)(O)OP(=O)(O)OP(=O)(O)O)O2)c1 [5-NITP]
X-ray crystal structure, 2.3 Å, crystal soaking [2]: clearly shows electron density for 5-NITP bound at the S-site
